The text below walks through data of US6469002B1, “Imidazolidine compounds” (Millennium Pharmaceuticals, Inc., priority 2001, dated 2002).

The target of this assay is T1, CXCR3 (Homo sapiens, UniProt P49682).
T1 construct: expressed in transfected cells
T1 sequence (P49682 1-368): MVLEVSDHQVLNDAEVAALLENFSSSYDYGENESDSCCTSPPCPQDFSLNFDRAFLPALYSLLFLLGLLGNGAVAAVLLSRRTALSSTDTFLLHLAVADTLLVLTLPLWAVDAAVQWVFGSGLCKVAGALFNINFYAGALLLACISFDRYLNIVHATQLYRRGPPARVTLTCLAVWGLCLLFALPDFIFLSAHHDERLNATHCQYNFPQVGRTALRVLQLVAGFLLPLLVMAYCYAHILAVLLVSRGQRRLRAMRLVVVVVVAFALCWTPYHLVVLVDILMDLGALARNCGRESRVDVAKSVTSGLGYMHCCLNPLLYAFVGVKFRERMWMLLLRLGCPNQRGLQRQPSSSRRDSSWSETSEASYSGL
Description: CXCR3/IP-10 radioligand binding (125I-IP-10 competition, CXCR3.L1/2 cell membranes). Conditions: test compound 10 μmol/L, 125I-labeled IP-10 binding to CXCR3.L1/2 transfectant cell membrane. The source says:
The activity of the compounds of the present invention can be assessed using a suitable assay, such as a receptor binding assay, a chemotaxis assays, an extracellular acidification assay or a calcium flux assay (see, for example, Hesselgesser et al., J. Biol. Chem. 273(25):15687-15692 (1998) and WO 98/02151). For example, as described herein, small organic molecule antagonists of CXCR3/IP-10 binding have been identified utilizing cells engineered to express recombinant human CXCR3 (CXCR3.L1/2) and which bind ^125I-IP-10 and chemotax in response to IP-10, Mig or I-TAC. Specifically, a high through-put receptor binding assay, which monitors ^125I-IP-10 binding to CXCR3.L1/2 cell membranes, was used to identify small molecule antagonists which block binding of IP-10, Mig or I-TAC to CXCR3.
CXCR3.L1/2 cells were pelleted by centrifugation and stored at −80° C. The cells were lysed by thawing and resuspending at about 1.5×10^7 cells/ml in a hypotonic buffer (5 m mol/L HEPES (pH 7.2), 2 mmol/L EDTA, 10 μg/ml each leupeptin, aprotinin, and chymostatin, and 100 μg/ml PMSF (all from Sigma, St. Louis)). Nuclei and cellular debris was removed by centrifugation ([…], at 4° C.) for 10 min. The supematant was transferred to chilled centrifuge tubes (Nalge, Rochester, N.Y.) and the membrane fraction was recovered by centrifugation (25,000 g at 4° C.) for 45 min. The membrane pellet was resuspended in freezing buffer (10 mM HEPES (pH 7.2), 300 mmol/L Sucrose, 5 μg/ml each of leupeptin, aprotinin, and chymostatin, and 10 μg/ml PMSF). The total protein concentration was determined using a coomassie blue staining protein concentration assay kit (BioRad). The membrane preparation was aliquoted and stored at −80° C. until time of use.
CXCR3/IP-10 binding was performed in 96-well polypropylene plates (Costar) in a final volume of 0.1 ml of HBB buffer (50 mmol/L Hepes pH 7.4, 1 mmol/L CaCl2, 5 mmol/L MgCl2, 0.02% sodium azide, 0.5% BSA (bovine serum albumin)) containing 1 to 5 μg of CXCR3.L1/2 transfectant cell membrane protein and 0.05 to 0.2 nmol/L ^125I-labeled IP-10 (NEN, Boston, Mass.). Competition binding experiments were performed by including variable concentrations of unlabeled IP-10 or test compound. Nonspecific binding was determined following the addition of a 250 nmol/L unlabelled IP-10. Samples were incubated for 60 min at room temperature, and bound and free tracer (^125I-IP10) were separated by filtration through 96-well GF/B filterplates (Packard) presoaked in 0.3% polyethyleneimine. The filters were washed in HBB further supplemented with 0.5 mol/L NaCl, dried, and the amount of bound radioactivity determined by liquid scintillation counting. The competition is presented as the percent specific binding as calculated by 100×[(S-B)/(T-B)], where S is the radioactivity bound for each sample, B is background binding, and T is total bound in the absence of competitors. Duplicates were used throughout the experiments.

`N#CC(C#N)=C1N(CCCNCc2ccc(CN3CCCCC3)cc2)CCN1Cc1cccc2ccccc12` [Compound 20, 1-[2-{N-(4-(1-Piperidinomethyl)benzyl)amino}propyl]-3-(1-naphthylmethyl)-2-imidazolidinylidenepropanedinitrile] gave an inhibition at 10 µM (Table 5) of 74%.

Molecule `CCN(CCN1CCN(Cc2cc(Cl)cc(Cl)c2)C1=C(C#N)C#N)C(=O)c1ccc(CN2CCCCC2)cc1` [Compound 28, 1-[2-{N-Ethyl-N-(4-(1-piperidinomethyl)benzoyl)amino}ethyl]-3-(3,5-dichlorobenzyl)-2-imidazolidinylidenepropanedinitrile] displayed an inhibition at 10 µM (Table 6) of 41%.

`CN(CCN1CCN(Cc2cccc3ccccc23)C1=C(C#N)C#N)Cc1ccc(CN2CCCCC2)cc1` [Compound 5, 1-[2-{N-Methyl-N-(4-piperidinomethylbenzyl)amino}ethyl]-3-(1-naphthylmethyl)-2-imidazolidinylidenepropanedinitrile]: the “% inhibition at 10 μmol/L” value (Table 5) is given as 99%.

Consider `CCN(CCN1CCN(Cc2cccc3ccccc23)C1=C(C#N)C#N)Cc1ccc(OCCN2CCCC2)cc1` [Compound 4, 1-[2-{N-Ethyl-N-{4-(2-(1-pyrrolidinyl)ethoxy)benzyl}amino}ethyl]-3-(1-naphthylmethyl)-2-imidazolidinylidenepropanedinitrile], for which the “% inhibition at 10 μmol/L” value (Table 5) was 76%.

As for `CCCNCc1ccc(CN(CC)CCN2CCN(Cc3cccc4ccccc34)C2=C(C#N)C#N)cc1` [Compound 10, 1-[2-{N-Ethyl-N-(4-(N-propylamino)methylbenzyl)amino}ethyl]-3-(1-naphthylmethyl)-2-imidazolidinylidenepropanedinitrile], the “% inhibition at 10 μmol/L” value (Table 5) was 100%.

As for `N#CC(C#N)=C1N(CCN(Cc2cccc(CN3CCCCC3)c2)C(=O)c2cccs2)CCN1Cc1cccc2ccccc12` [Compound 15, 1-[2-{N-(2-Thiophenecarbonyl)-N-(3-piperidinomethylbenzyl)amino}ethyl]-3-(1-naphthylmethyl)-2-imidazolidinylidenepropanedinitrile], the “% inhibition at 10 μmol/L” value (Table 5) was 71%.
